A melting point compilation (Tetko et al.)

melting point | SMILES
156 °C | O=C(Nc1ccccc1[N+](=O)[O-])C(C(F)(F)F)C(F)(F)F
-42.8 °C | CCC1CCc2ccccc2C1 (centres undefined)
-54 °C | CC1CCCC1C (centres undefined)
65 °C | CC(=O)OCCc1ccc(CCOC(C)=O)cc1
84 °C | CC(C)(CCC(=O)O)C(=O)O
133 to 134 °C | CCOC(=O)c1cn2c(n1)sc1ccccc12
118 to 119 °C | Nc1cccc(N2CCOCC2)c1
112 °C | CCOc1cc(C(=O)O)cc(OCC)c1OCC
244 to 245 °C | CCC(=N\NC(N)=O)/C(C)=N\NC(N)=O
92 °C | C=CCOc1ccc(CC(=O)O)cc1Cl
109 °C | CCCCCCCCCCCCCCCCCC(N)=O
68 to 70 °C | Cc1ccc(S(=O)(=O)OCC(C)OS(=O)(=O)c2ccc(C)cc2)cc1 (centres undefined)
300 °C | O=c1cc2oc3cc(O)c(O)cc3c(-c3ccccc3)c-2cc1O
152 °C | O=C(O)CN1CSC(=S)N(Cc2ccccc2)C1
62 to 64 °C | CC(=O)c1c(-c2cccc(Cl)c2Cl)noc1C
95 to 96 °C | Cn1nc(-c2cccs2)cc1CO
324 °C | Nc1cc(C(=O)O)ccc1C(=O)O
103 to 104 °C | ON=C1CCCSC1
116 °C | N#CCC(=O)c1ccc(Cl)c(Cl)c1
135 to 140 °C | CC(C)(C)OC(=O)N[C@@H](Cc1ccc(O)cc1)C(=O)O
115 °C | CSCCC(NC(C)=O)C(=O)O (racemic)
102 °C | COc1c(OC)c(OC(C)=O)c2cc(F)ccc2c1OC(C)=O
140 °C | N#Cc1ccccc1C#N
206 °C | O=C1c2ccccc2C(=O)N1Br
155 to 156 °C | Cc1c(C(=O)O)nnn1-c1cccc(C(F)(F)F)c1
224 to 233 °C | CC(=O)OCC1OC(n2cnc3c(=O)[nH]c(N)nc32)C(OC(C)=O)C1OC(C)=O (centres undefined)
138 °C | CCc1c(Br)c(Br)c(Br)c(Br)c1Br

melting point | SMILES
120 °C | O=C1OC=CC(c2ccccc2)Cc2ccccc21 (centres undefined)
185 °C | Cc1c(C)c2c(c(C)c1O)CCC(C)(COc1ccc(CC3SC(=O)NC3=O)cc1)O2 (centres undefined)
124 to 131 °C | N#CC(c1ccc(Cl)nn1)c1c(Cl)cccc1Cl (centres undefined)
71.5 °C | CC(/N=N/c1cc(Cl)cc(Cl)c1O)=C(\Cl)C(=O)OCCOCCOCCCl
25 °C | CCN(CC)C(=O)c1cccnc1
130 °C | CC(C)(C)OC(=O)N[C@H](Cc1ccc(F)cc1)C(=O)O
164 °C | O=C(CCC1=NC=NC1)NCCc1c[nH]cn1
140 °C | CC(C)(CC(=O)O)C(=O)O
207 °C | Nc1cccc2c1C(=O)c1cccc(Cl)c1C2=O
-64 °C | C=Cc1ccc(C)cc1C
176 to 180 °C | NC(=S)c1ncc(C(F)(F)F)cc1N1CCCC1
165 °C | CNc1ccc2cc(OC)[nH]c2c1
152 to 156 °C | CC(=O)Oc1ccc2c(C)cc(=O)oc2c1
64 °C | Cc1cccc(CC(=O)O)c1
19 °C | Fc1c(F)c(F)c(CBr)c(F)c1F
31 °C | Cn1ccccc1=O
314 °C | CC1(C)CC(=O)C2=C(C1)Nc1ccc3ccccc3c1C2c1ccccc1 (centres undefined)
70 to 77 °C | NC(CCO)c1ccccc1 (centres undefined)
300 °C | O=C1C=CC(=O)N1c1ccc(N2C(=O)C=CC2=O)cc1
74 °C | CC(=O)n1c(C)c(C)c2ccccc21
257 to 260 °C | O=C(O)c1cc2cc(Br)ccc2o1
117 °C | Nc1ccc(C(=O)c2ccccc2)cc1N
123 °C | O=C(Nc1nc(-c2ccccc2)cs1)c1ccccc1
-87.7 °C | CC(C)[Si](Cl)(Cl)Cl
216 °C | COc1cc(/C=N/N=C/c2ccc(OCc3ccccc3)c(OC)c2)ccc1OCc1ccccc1
178 °C | O=C(OCC1(COC(=O)c2cccnc2)CCCC(COC(=O)c2cccnc2)(COC(=O)c2cccnc2)C1O)c1cccnc1
57 to 60 °C | C=Cc1ccc2c(c1)OCCOCCOCCOCCOCCO2

melting point | SMILES
-26 °C | CCCCCCCCCCS
144 °C | CS(=O)(=O)Nc1ccc([N+](=O)[O-])cc1Oc1ccccc1
175 to 177 °C | COC(=O)CCC(C)C1CCC2C3C(O)C(O)C4CC(OC(C)=O)CCC4(C)C3CC(OC(C)=O)C12C (centres undefined)
195 to 197 °C | COc1cc2c(cc1OC)C(c1ccccc1)N(C(C)=O)CC2 (centres undefined)
158 °C | COc1ccc(C=CC(=O)Oc2ccc(C=CC(=O)c3ccccc3)cc2)cc1
147 to 148 °C | Cc1nc2nn(C)cc2c(=O)n1N
107 to 109 °C | Cc1onc(-c2c(Cl)cccc2Cl)c1CO
121 to 122 °C | CCSc1ncccc1C(=O)NC(CCSC)C(=O)O (centres undefined)
256 to 258 °C | NC(C(=O)O)(c1ccccc1)C1CCC1 (centres undefined)
260 °C | COc1nc(C)nc(N)n1
98 °C | CC12CCC(C(C(=O)c3ccccc3)C1=O)C2(C)C (centres undefined)
11 °C | C[Si](C)(C)C#N
173 °C | CC(=O)CCc1cc2c(cc1[N+](=O)[O-])CCC(C)N2C(=O)c1ccc([N+](=O)[O-])cc1 (centres undefined)
99 °C | Cc1cccc(NC(=O)c2cnc(C(C)(C)C)c(Cl)n2)c1
112 °C | COC(=O)c1ccc(C(=O)OC)o1
155 °C | O=C(OC(C(=O)O)C(OC(=O)c1ccccc1)C(=O)O)c1ccccc1 (centres undefined)
55 to 56 °C | CC(=O)CCc1ccc(CCC(C)=O)cc1
153 to 154 °C | N#CC(=CNc1ccccn1)C(=O)c1ccccc1
219 to 221 °C | NNC(=O)c1cc2cc(OCc3ccccc3)ccc2[nH]1
118 to 121 °C | CC(=O)c1[nH]c(C)cc1C
133 °C | COc1ccc2nc(Cl)c(CO)cc2c1
170 to 174 °C | COC(=O)c1ccc(C(=O)CC#N)cc1
192 °C | Cn1c(=O)c(C2=NNC(=O)C2=NNc2c(Br)cc([N+](=O)[O-])cc2[N+](=O)[O-])c(O)c2ccccc21
207 °C | O=c1[nH]c2ccccc2n1-c1ccccc1
104 to 106 °C | O=[N+]([O-])c1ccc(N2CCCCC2)cc1

SMILES | melting point
O=C(O)CC(Br)C(=O)O (racemic) | 160 to 166 °C
O=C(O)CCC(=O)OOC(=O)CCC(=O)O | 127 °C
O=[N+]([O-])c1ccc(S(=O)(=O)O)c([N+](=O)[O-])c1 | 108 °C
CC(C)(C)OOC(C)(C)CCC(C)(C)OOC(C)(C)C | 8 °C
Fc1cc2c(cc1F)Oc1cc(Br)c(Br)cc1O2 | 210 °C
CCCN(CCCl)c1c([N+](=O)[O-])cc(C(F)(F)F)cc1[N+](=O)[O-] | 42 °C
N[C@H](c1ccccc1)[C@@H](O)c1ccccc1 | 142 to 144 °C
C=C1CC2C(CCC3(C)C(=O)CCC23)C2(C)C=CC(=O)C=C12 (centres undefined) | 190 °C
COc1ccc(CCl)cc1 | 24.5 °C
O=[N+]([O-])c1ccc(Cl)cc1[N+](=O)[O-] | 40 to 41 °C
